Laboratory results published in PubChem BioAssay AID463203 (Broad Institute, 2010).
Activity calls are given as the source filed them.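 The calls were made as follows: active = more than half of replicate measurements showing over 20% loss of kinase signal relative to plate controls; inconclusive = some but at most half of replicates over 20% loss; inactive = no replicate over 20% signal loss.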

Target: Glycogen synthase kinase-3 alpha (Homo sapiens) (UniProt P49840)
Test: concentration-response blocking of human GSK3A – biochemical, luminescence, cell-free homogeneous, retest, dose response (AID 463203)
Conditions: GSK-3 alpha enzyme, ADP-Glo luminescence, 60 min

Chain of Glycogen synthase kinase-3 alpha (Homo sapiens) (P49840 whole entry, looked up): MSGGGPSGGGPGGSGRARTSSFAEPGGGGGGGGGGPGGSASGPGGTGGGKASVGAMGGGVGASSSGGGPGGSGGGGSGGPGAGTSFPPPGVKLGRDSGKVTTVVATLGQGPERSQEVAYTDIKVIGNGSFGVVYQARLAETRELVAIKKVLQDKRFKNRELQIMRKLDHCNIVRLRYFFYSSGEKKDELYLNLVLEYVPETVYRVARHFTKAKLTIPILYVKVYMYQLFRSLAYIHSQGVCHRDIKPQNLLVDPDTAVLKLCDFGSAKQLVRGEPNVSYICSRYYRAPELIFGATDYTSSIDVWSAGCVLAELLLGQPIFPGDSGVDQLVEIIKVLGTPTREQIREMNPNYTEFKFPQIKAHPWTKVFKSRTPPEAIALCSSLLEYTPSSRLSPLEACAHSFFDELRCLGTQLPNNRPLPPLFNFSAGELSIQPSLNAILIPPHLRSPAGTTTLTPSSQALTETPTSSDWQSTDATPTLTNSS

Row | Structure (SMILES) | AC50
1 | CCOC(=O)c1cnc2c(C(F)(F)F)cccc2c1N1CCN(C)CC1 | > 30 µM (inactive)
2 | COc1cccc(/C=C2\Oc3cc(OCC(=O)N4CCC[C@H]4C(=O)O)ccc3C2=O)c1 | > 30 µM (inactive)
3 | COc1cccc(/C=C2\SC(=O)NC2=O)c1OCc1ccc(C(=O)O)cc1 | 26.9 µM
4 | CC1=C(C(=O)OCc2ccc3c(c2)OCO3)C(c2ccccc2)NC(=O)N1 (stereo unspecified) | 1.97 µM
5 | Cc1ccc(N(Cc2ccc([N+](=O)[O-])cc2)C(=O)c2ccco2)cc1 | > 30 µM (inactive)
6 | COc1ccc2nc(NC(=O)CN3CCN(C)CC3)sc2c1 | > 30 µM (inactive)
7 | O=C(CSc1nnc(SCc2ccccc2)s1)N/N=C/c1ccc(C(=O)O)cc1 | 2.55 µM
8 | Cc1occc1C(=O)N/N=C/c1ccc(N(C)C)cc1 | 23.1 µM
9 | CC(=O)c1ccc(N=Nc2c(C)[nH][nH]c2=O)cc1 | 24.5 µM
10 | COC(=O)c1c(NC(=O)CN2C(=O)NC3(CCc4ccccc4C3)C2=O)sc2c1CCCCC2 (stereo unspecified) | > 30 µM (inactive)
11 | Cc1ccc(/C=C2\C(=O)Nc3ccccc32)o1 | 31.4 µM
12 | COc1ccc(/C=C2\Oc3cc(OCC(=O)N4CCC[C@H]4C(=O)O)ccc3C2=O)c(OC)c1OC | > 30 µM (inactive)
13 | CCOc1ccc(-c2c(C(=O)N/N=C(\C)c3ccncc3)nnn2-c2nonc2N)cc1 | 20.9 µM
14 | O=C(O)c1cc(NC(=O)c2ccccc2[N+](=O)[O-])ccc1O | > 30 µM (inactive)
15 | Cc1nnc(NC(=O)Oc2ccccc2)s1 | > 30 µM (inactive)
16 | CC(C)N1C(=O)/C(=C/C=C/c2ccco2)C(=O)N(Cc2ccco2)C1=O | > 30 µM (inactive)
17 | NC(=O)c1ccsc1NC(=O)COC(=O)Cc1ccsc1 | 28.6 µM
18 | Cc1c(C(=O)N/N=C/c2ccc(O)c(Br)c2)sc(N)c1C#N | 1.02 µM
19 | CC1(C)CC(=O)C2=C(C1)Nc1nc(SCCN3CCOCC3)[nH]c(=O)c1C2c1cccs1 (stereo unspecified) | > 30 µM (inactive)
20 | COc1cccc(C2CC(=O)Nc3cc(OC)c(OC)c(OC)c32)c1OC (stereo unspecified) | > 30 µM (inactive)
21 | Cc1nc(NCCc2ccccc2)c(C#N)c(C)c1[N+](=O)[O-] | > 30 µM (inactive)
22 | COc1cc2c(cc1OC)-c1c3c(cc4c1[C@@H](C2)N(C)CC4)OCO3 | 24.9 µM
23 | CCOC(=O)c1ccc(N2CSC3=C(C#N)C(c4cccs4)CC(=O)N3C2)cc1 (stereo unspecified) | > 30 µM (inactive)
24 | Cc1ccc(-c2nnc(N3CCN(C(=O)COc4ccccc4)CC3)c3ccccc23)cc1 | > 30 µM (inactive)
25 | COc1cc(/C=N/c2oc(C)c(C)c2C#N)cc(Br)c1O | > 30 µM (inactive)
26 | O=S(=O)(O)c1ccc(N=Nc2ccccc2)cc1 | > 30 µM (inactive)

Row | Structure (SMILES) | AC50
27 | COc1ccc(CCn2cnc(=O)c(C#N)c2C)cc1OC | > 30 µM (inactive)
28 | Nc1nc(-c2ccccc2)nc(-c2ccccc2O)n1 | 21.4 µM
29 | COc1ccccc1NC(=O)c1cc2ccc(O)cc2o/c1=N\O | > 30 µM (inactive)
30 | C=CCNC(=S)N/N=C(\C)c1ccc(OC)cc1 | > 30 µM (inactive)
31 | Nc1nc(-c2ccccc2)cc(-c2ccccc2O)n1 | 25.4 µM
32 | Nc1ncc(-c2ccccc2)c(-c2ccc(OCc3ccccc3)cc2O)n1 | > 30 µM (inactive)
33 | CCOc1cccc(-c2c(C(=O)N/N=C/c3sccc3C)nnn2-c2nonc2N)c1 | > 30 µM (inactive)
34 | Cc1ccccc1NC1=NCCCS1 | > 30 µM (inactive)
35 | COc1cc(/C=N/Nc2nc(=O)[nH]nc2C)cc([N+](=O)[O-])c1O | 22.1 µM
36 | COc1cc(-c2nnc(SCc3c(F)cccc3Cl)o2)cc(OC)c1OC | > 30 µM (inactive)
37 | COc1ccc(S(=O)(=O)Nc2c(C(=O)O)[nH]c3ccc(OC)cc23)cc1 | 30.7 µM
38 | S=c1[nH]nc(-c2cc3c(s2)-c2ccccc2CC3)o1 | 22.9 µM
39 | O=C1CC(c2cccs2)CC2=C1C(c1ccccc1)n1ncnc1N2 (stereo unspecified) | > 30 µM (inactive)
40 | N#C/C(=N\Nc1ccccc1Cl)C(=O)c1ccccc1 | > 30 µM (inactive)
41 | Cc1sc2ncnc(NCc3ccco3)c2c1C | > 30 µM (inactive)
42 | CCc1ccc(OCC(O)CNC(C)(C)C)cc1 (stereo unspecified) | > 30 µM (inactive)
43 | COc1ccccc1N1C(=O)C2C(c3ccc(F)cc3)NN(C(=O)c3ccc(C)cc3)C2C1=O (stereo unspecified) | > 30 µM (inactive)
44 | O=C(Nc1ccccc1-c1nnc(SCc2ccccc2)o1)c1ccccc1 | > 30 µM (inactive)
45 | S=c1sc2ccccc2n1CCc1ccncc1 | 4.51 µM
46 | Cc1ccc(-c2nnc3n2N=C(c2ccc(Br)cc2)CS3)cc1 | > 30 µM (inactive)
47 | COc1cc(OC)cc(C2C(C#N)=C(N)Oc3n[nH]c(-c4cccnc4)c32)c1 (stereo unspecified) | > 30 µM (inactive)
48 | Cc1c(C(=O)N2CCOCC2)oc2ccc(S(=O)(=O)N3CCCC3)cc12 | > 30 µM (inactive)
49 | O/N=C1/CC/C(=N\O)c2nn(-c3ccccc3)nc21 | 25.3 µM
50 | COc1c2ccccc2nc2ccccc12 | > 30 µM (inactive)
51 | COc1ccc(OC)c(C2CC(=O)Nc3n[nH]c(-c4ccccc4)c32)c1 (stereo unspecified) | > 30 µM (inactive)
52 | CC1CCC[C@H](O)CCCCCc2cc(O)cc(O)c2C(=O)O1 (stereo partly specified) | > 30 µM (inactive)

Row | Structure (SMILES) | AC50
53 | Fc1ccccc1CSc1nnc(-c2cccnc2)o1 | > 30 µM (inactive)
54 | Brc1ccc(-c2nc3ncccn3c2NC2CCCCC2)o1 | 2.61 µM
55 | Cc1sc2ncnc(N3CCC(C(=O)Nc4ccc(C#N)cc4)CC3)c2c1C | > 30 µM (inactive)
56 | Cc1csc(NC(=O)C2CC(=O)N(c3ccc(C)c(C)c3)C2)n1 (stereo unspecified) | > 30 µM (inactive)
57 | COc1ccc(COC(=O)C2=C(C)NC(=O)NC2c2cccc(Br)c2)cc1 (stereo unspecified) | 16.9 µM
58 | COc1ccc2[nH]c(-c3ccc(C)cc3)cc(=O)c2c1 | > 30 µM (inactive)
59 | CC(/C=N/NC(=O)c1nnn(-c2nonc2N)c1C(C)C)=C\c1ccccc1 | > 30 µM (inactive)
60 | CCCCC(=O)Nc1ccc2c(c1)C(=O)NC2=O | 15.6 µM
61 | CNC(=O)NCC12CC3CC(CC(C3)C1)C2 | > 30 µM (inactive)
62 | COc1cc(/C=N/NC(=O)CSCc2ccc([N+](=O)[O-])cc2)cc(OC)c1OC | > 30 µM (inactive)
63 | S=C(Nc1ccc2c(c1)OCCO2)Nc1ccccc1Cl | > 30 µM (inactive)
64 | CN(C)/C=C/c1c([N+](=O)[O-])c2ccc(O)cc2n1-c1ccccc1 | 2.08 µM
65 | c1ccc2c(c1)ccc1nnc(SCc3ccc4c(c3)OCO4)n12 | > 30 µM (inactive)
66 | COc1cc(/C=N/NC(=O)c2ccc(COc3ccccc3Cl)o2)cc(Br)c1O | > 30 µM (inactive)
67 | COc1c2ccccc2c(OC)c2ccccc12 | > 30 µM (inactive)
68 | O=C(NCCCN1CCN(Cc2ccccc2Cl)CC1)Nc1ccccc1 | > 30 µM (inactive)
69 | COc1ccc(CCNc2ccc(S(=O)(=O)N3CCCC3)cc2[N+](=O)[O-])cc1 | > 30 µM (inactive)
70 | O=C(Cn1c(NCCCO)nc2ccccc21)c1ccc([N+](=O)[O-])cc1 | > 30 µM (inactive)
71 | O=c1c(O[C@@H]2O[C@H](CO)[C@@H](O)[C@H](O)[C@H]2O)c(-c2ccc(O)cc2)oc2cc(O)cc(O)c12 | 30.4 µM
72 | COc1ccc(-n2c(O)c(C=NC3CC3)c(=O)[nH]c2=O)cc1 | 24.9 µM
73 | COC(=O)c1sc2cnccc2c1N | 24.8 µM
74 | COc1ccccc1C(=O)O/N=C(\N)c1ccccn1 | > 30 µM (inactive)
75 | CC(C)c1[nH]nc2c1C(c1ccco1)C(C#N)=C(N)O2 (stereo unspecified) | > 30 µM (inactive)
76 | Cc1oc2ccc(O)c(CN3CCOCC3)c2c1C(=O)c1ccc(Cl)cc1 | > 30 µM (inactive)
